Molecules are shown by their SMILES.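 How tested: cells in 96-well plates exposed to compound for 48 hours at five concentrations. GI50 marks 50% less growth.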 Active and inactive are the calls of the source. Cut-off read from the data, not from the text of the source: active = GI50 up to about 1.1 µM and inactive = higher. A value given as a limit tells only on which side of the number the result lay.

Holding throughout (test): growth of human tumour cells (NCI), 48 h
The test system of experiment [1] is DMS-273.
Experiment [2] has as its system EKVX.
Experiment [3] relates to HOP-92.
For experiment [4], the system named is MOLT-4.
Experiment [5] deals with NCI-H226.
In experiment [6] the test system is OVCAR-3.
Experiment [7] concerns OVCAR-4.
The test system of experiment [8] is SF-268.
Experiment [9] relates to SK-MEL-5.
The test system of experiment [10] is SK-OV-3.
The test system of experiment [11] is SNB-75.
In experiment [12] the test system is SW-620.
Experiment [13] has as its system TK-10.
Experiment [14] concerns NCI-H460.
For experiment [15], the system named is HL-60.
Experiment [16] deals with SK-MEL-2.
Experiment [17] relates to MDA-MB-435.
Experiment [18] concerns PC-3.
For experiment [19], the system named is SR.
Experiment [20] has as its system T47D.

`CC(C)(C)C(=O)CC(=O)C(C)(C)C.CC(C)(C)C(=O)CC(=O)C(C)(C)C.[SiH4]`: the GI50 in [1] was 0.446 µM (active); in experiment [2], < 0.01 µM (active); in experiment [3] it was 0.692 µM (active); in [4] it was 2.11 µM (inactive); in experiment [5], 0.0428 µM (active); in experiment [6], 2.07 µM (inactive). Besides, the GI50 in [7] is 0.612 µM (active); in experiment [8], 1.76 µM (inactive); in experiment [9], 2.1 µM (inactive); in experiment [10] it was 1.87 µM (inactive); in experiment [11], 0.719 µM (active); in experiment [12] it was 0.847 µM (active). For the same molecule, the GI50 in experiment [13] was 3.4 µM (inactive).

For `COC12OCCN(C)C1=CC(=O)C1(C)N=NCC12` (configuration not stated), the GI50 in experiment [1], in experiment [2], in [3], in [4], in experiment [5] and in experiment [14] was > 100 µM (inactive) throughout. For the same molecule, the GI50 in experiment [6], in experiment [9], in experiment [10], in experiment [11], in experiment [12] and in experiment [13] was > 100 µM (inactive) each time.

As for `Cc1ccc(NC(=O)C2C(=O)N(c3ccc(C)c(C)c3)C(=O)/C2=N/O)cc1C` (configuration not stated), the GI50 in experiment [1], in experiment [2], in [15], in experiment [3], in experiment [4] and in [5] was > 100 µM (inactive) in each case. Moreover, the GI50 in experiment [14] is 44.7 µM (inactive); in experiment [6] it was > 100 µM (inactive); in experiment [8], > 100 µM (inactive); in [16], > 100 µM (inactive); in experiment [9], > 100 µM (inactive); in experiment [10], > 100 µM (inactive). The GI50 is > 100 µM (inactive) in experiment [11], 19.3 µM (inactive) in experiment [12] and > 100 µM (inactive) in [13].

Turning to `OC1(c2ccccc2)c2ccccc2N=C2NCCN21` (configuration not stated), the GI50 in experiment [2] is > 100 µM (inactive); in experiment [15] it was 44.1 µM (inactive); in experiment [3], 54.5 µM (inactive); in [17], > 100 µM (inactive); in experiment [4], 0.424 µM (active); in experiment [5] it was > 100 µM (inactive). Further, the GI50 is 56.4 µM (inactive) in experiment [14]; > 100 µM (inactive) in experiment [6]; > 100 µM (inactive) in [7]; 52.2 µM (inactive) in experiment [18]; > 100 µM (inactive) in experiment [8]; > 100 µM (inactive) in experiment [16]. The GI50 in experiment [9] was 37.6 µM (inactive); in experiment [10], > 100 µM (inactive); in experiment [11], 91.4 µM (inactive); in [19] it was 0.192 µM (active); in experiment [12], 84.7 µM (inactive); in [20], 65.6 µM (inactive). Moreover, in experiment [13], the GI50 is 37.4 µM (inactive).

In the case of `CC1(C)O[C@@H]2C[C@H]3[C@@H]4C[C@H](F)C5=CC(=O)C=C[C@]5(C)[C@@]4(F)[C@@H](O)C[C@]3(C)[C@]2(C(=O)CO)O1` [FLUOCINOLONE ACETONIDE], the GI50 in experiment [2] was > 100 µM (inactive); in [15] it was > 100 µM (inactive); in experiment [3] it was > 100 µM (inactive); in experiment [17], > 100 µM (inactive); in experiment [4], > 83.8 µM (inactive); in experiment [5], > 85.1 µM (inactive). Besides, the GI50 in experiment [14] is > 100 µM (inactive); in [6], > 100 µM (inactive); in [7] it was > 89.1 µM (inactive); in experiment [18], > 72.6 µM (inactive); in experiment [8], > 100 µM (inactive); in experiment [16], > 100 µM (inactive). Moreover, the GI50 is > 100 µM (inactive) in [9]; > 72.3 µM (inactive) in [10]; > 100 µM (inactive) in experiment [11]; > 100 µM (inactive) in experiment [19]; > 100 µM (inactive) in [12]; > 100 µM (inactive) in experiment [20]. Moreover, the GI50 in [13] was > 100 µM (inactive).

Regarding `O=C(O)CN(CCNC(=O)OCC1c2ccccc2-c2ccccc21)CCNC(=O)OCC1c2ccccc2-c2ccccc21`, the GI50 in experiment [2] is 23.7 µM (inactive); in [15] it was 24.6 µM (inactive); in experiment [3], 22.1 µM (inactive); in experiment [17] it was 19.1 µM (inactive); in experiment [4], 23.4 µM (inactive); in [5] it was 33.3 µM (inactive). In addition, the GI50 in experiment [14] was 19.2 µM (inactive); in experiment [6] it was 18.1 µM (inactive); in [7], 27.1 µM (inactive); in [18], 24 µM (inactive); in [8], 19 µM (inactive); in [16], 22.9 µM (inactive). The GI50 was 19.6 µM (inactive) in experiment [9]; 32.2 µM (inactive) in [10]; 29.6 µM (inactive) in [11]; 24.9 µM (inactive) in experiment [19]; 21.2 µM (inactive) in experiment [12]; 20.1 µM (inactive) in experiment [20]. Further, the GI50 in experiment [13] was 29.1 µM (inactive).

In the case of `O=C(O)c1ccc(C(=O)O)c(C(=O)Nc2ccc3c(c2)C(=O)c2ccccc2-3)c1`, the GI50 is > 100 µM (inactive) in [2]; 55.6 µM (inactive) in [15]; > 100 µM (inactive) in experiment [3]; > 100 µM (inactive) in experiment [17]; > 100 µM (inactive) in experiment [4]; > 100 µM (inactive) in experiment [5]. In addition, the GI50 in experiment [14], in experiment [6], in [7], in [18], in [8] and in [16] was > 100 µM (inactive) throughout. The GI50 in [9], in [10], in experiment [11], in experiment [19], in experiment [12] and in experiment [20] was > 100 µM (inactive) in each case. Besides, in [13], the GI50 was > 100 µM (inactive).

As to `CC(=O)OC1(C)N=NC2(CCCCC2)O1` (configuration not stated), the GI50 in [2] was > 100 µM (inactive); in [15], 18.9 µM (inactive); in experiment [3], > 100 µM (inactive); in experiment [17], > 100 µM (inactive); in experiment [4], > 100 µM (inactive); in experiment [5], > 100 µM (inactive). Also, the GI50 in [14], in experiment [6], in experiment [7], in experiment [18], in [8] and in experiment [16] was > 100 µM (inactive) each time. Further, the GI50 in experiment [9], in experiment [10], in experiment [11], in experiment [19], in experiment [12] and in experiment [20] was > 100 µM (inactive) in each case. The GI50 in experiment [13] is > 100 µM (inactive).

In the case of `CC(=O)CC1CCC(=O)/C=C/C(=O)OC(CC(C)=O)CCC(=O)/C=C/C(=O)O1` (configuration not stated), the GI50 in experiment [2] was 8.02 µM (inactive); in experiment [15], 2.45 µM (inactive); in experiment [3] it was 3.78 µM (inactive); in experiment [17], 17 µM (inactive); in experiment [4], 2.19 µM (inactive); in [5], 33 µM (inactive). The GI50 in experiment [14] is 18.5 µM (inactive); in experiment [6], 6.79 µM (inactive); in experiment [7] it was 7.83 µM (inactive); in [18] it was 15 µM (inactive); in experiment [8], 25.9 µM (inactive); in experiment [16], 6.61 µM (inactive). Besides, the GI50 in experiment [9] is 13.8 µM (inactive); in [10], 20.7 µM (inactive); in experiment [11], 12.8 µM (inactive); in experiment [19], 2.23 µM (inactive); in experiment [12] it was 1.67 µM (inactive); in experiment [20], 2.09 µM (inactive). Besides, the GI50 in [13] was 7.35 µM (inactive).

In the case of `COc1ccc2nc3cc([N+](=O)[O-])ccc3c(NNc3ccc([N+](=O)[O-])cc3)c2c1`, the GI50 was 44.1 µM (inactive) in [2]; 20.3 µM (inactive) in [15]; 26.7 µM (inactive) in experiment [3]; 31.6 µM (inactive) in experiment [17]; 25.5 µM (inactive) in experiment [4]; 2.36 µM (inactive) in experiment [5]. The GI50 in experiment [14] is 3.16 µM (inactive); in experiment [6] it was 22.4 µM (inactive); in [7], 57.4 µM (inactive); in experiment [18], 22.4 µM (inactive); in experiment [8] it was 54.7 µM (inactive); in experiment [16], 27.6 µM (inactive). The GI50 is 19.8 µM (inactive) in experiment [9]; 98.4 µM (inactive) in experiment [10]; 67.9 µM (inactive) in [11]; 32.5 µM (inactive) in experiment [19]; 9.02 µM (inactive) in experiment [12]; 37.6 µM (inactive) in experiment [20]. In addition, the GI50 in [13] is 2.46 µM (inactive).

On to `O=[N+]([O-])c1ccc(-[n+]2ccc3ccccc3c2)c([N+](=O)[O-])c1`, for which the GI50 was 6.73 µM (inactive) in experiment [2]; 1.54 µM (inactive) in experiment [15]; 2.48 µM (inactive) in experiment [3]; 2.5 µM (inactive) in experiment [17]; 2.83 µM (inactive) in experiment [4]; 16.2 µM (inactive) in experiment [5]. Further, the GI50 was 10.9 µM (inactive) in experiment [14]; 2.55 µM (inactive) in experiment [6]; 1.56 µM (inactive) in experiment [7]; 3.93 µM (inactive) in experiment [18]; 3.12 µM (inactive) in experiment [8]; 11.1 µM (inactive) in experiment [16]. Also, the GI50 is 2.64 µM (inactive) in experiment [9]; 14.1 µM (inactive) in experiment [10]; 3.14 µM (inactive) in experiment [11]; 3.42 µM (inactive) in experiment [19]; 1.95 µM (inactive) in experiment [12]; 2.01 µM (inactive) in experiment [20]. For the same molecule, the GI50 in experiment [13] was 1.85 µM (inactive).

The values are drawn from ChEMBL document CHEMBL1201862, “PubChem BioAssay data set” (2004).
